# According to patent US20240293425A1, “BZD-1 AS A CHEMO[…] CANCER” (University of Cincinnati, priority 2021, published 2024):
# Assays:
# [1] = tested on: methylated and unmethylated GBM cells; test: In vitro cytotoxicity of GBM cells, BZD-1 and TMZ single or combined; type: cell-based
# [2] = tested on: unmethylated GBM lines BT142-GFP and G43; test: Spheroid assay; type: cell-based; conditions: BZD-1 + TMZ; BT142-GFP and G43 spheroids; qualitative
# Protocol: Spheroid assays were carried out using two unmethylated GBM lines: BT142-GFP (FIG. 3A) and G43 (FIG. 3B) to qualitatively assess the effect of BZD-1+TMZ.
# [3] = Stability of co-solvent formulation at room temperature; type: physicochemical
# [4] = tested on: H1792 human lung cancer cells; test: MTS proliferation assay, BZD-1 alone; type: cell-based
# Protocol: 10^3 H1792 cells/well in 100 uL of medium were plated in a 96 well plate and allowed to attach for 24 hrs. The next day, BZD-1 (stock, 40 mM in DMSO) was first diluted to 40 μM in fresh cell culture medium, then serially 2-fold diluted. Medium on cells was then carefully aspirated and replaced with 100 μL of vehicle (DMSO)/drug containing medium, with 5 replicated for each control/drug dilution. Cells were returned to the incubator for 48 hours.
# (§1) For MTS Assay, medium was carefully aspirated and replaced with 100 μL of phenol red free medium. Then 20 μL of MTS reagent (Cell Titer 96 Aqueous Non-Radioactive Cell Proliferation Assay reagent—Promega) was added to each well. The plate was returned to incubator for 1 hour, then OD acquired at 490 nm in a plate reader. OD values were then analyzed, and the graph obtained using GraphPad Prism.
# [5] = tested on: H1792 human lung cancer cells; test: MTS proliferation assay, DTX + 2.5 μM BZD-1; type: cell-based
# Protocol: 10^3 H1792 cells/well in 100 μL of medium were plated in a 96 well plate and allowed to attach for 24 hrs. The next day, large volume of fresh medium containing 2.5 μM BZD-1 was prepared from 40 mM BZD-1 stock in DMSO. For Docetaxel (DTX) dilutions, either fresh medium was used for DTX only or 2.5 μM BZD-1 containing medium was used for DTX+2.5 μM BZD-1 treatment. Medium on cells was then aspirated and replaced by 100 μL of vehicle (DMSO)/drug containing media, with 5 replicated for each control/drug dilution. Cells were returned to the incubator for 48 hours.
# as §1, with “was” for “was carefully”, “by” for “with”
# 10^3 H1792 cells/well in 100 μL of medium were plated in a 96 well plate and allowed to attach for 24 hrs. […]
# For MTS Assay, medium was aspirated and replaced with 100 μL of phenol red free medium. […] The plate was returned to the incubator for 1 hour, then OD acquired at 490 nm in a plate reader. OD values were then analyzed, and the graph obtained using GraphPad Prism.
# H1792 cells = test: Clonogenic assay, BZD-1 with or without 0.5 nM DTX; type: cell-based, human; conditions: BZD-1 + 0.5 nM DTX, 12 days
# Protocol: 300 H1792 cells/well in 3 mL of medium were plated in a 6 well plate and allowed to attach for 36 hrs. A large volume of fresh medium containing 0.5 nM Docetaxel (DTX) was prepared from 1 mM stock in DMSO. For BZD-1 dilution, either fresh medium or +0.5 nM DTX containing medium was used. Medium on cells was then aspirated and replaced by 3 mL of vehicle (DMSO)/Drug containing media in triplicate for each control/drug dilution. Cells were returned to the incubator for 12 days. For staining, medium was aspirated, cells were washed 1× with PBS and fixed 15 minutes with methanol at room temperature. Methanol was then removed, and crystal violet staining solution added to cells and incubated 30 minutes at room temperature. Plates were then washed extensively with tap water, dried and pictured.
# H1792 xenograft tumor = test: H1792 flank xenograft dose response; type: in vivo, NOD-SCID mice
# Protocol: NOD-SCID mice (3 mice/group) were implanted with 10^6 H1792 cells s.c. in both flanks. When the tumors were palpable (day 11 post implantation), treatment was started and consisted of daily i.p. injections of vehicle (DMSO) or BZD-1 drug dissolved in DMSO for 7 days. Tumor size was measured every other day using a caliper. Tumor volume was calculated as follows: […]
# At day 46 post tumor implantation, mice were euthanized following institutional IACUC procedures. Tumors from both flanks were resected, weighed, and average tumor mass for each group was calculated, plotted, and photographed.
# [6] = Pharmacokinetics, brain penetration
# [7] = Metabolic stability in human liver microsomes; conditions: within 1 hr
# rats = test: Visible adverse effects after single dose i.p.; conditions: 12 hrs after single dose i.p., co-solvent formulation
# [8] = Solubility in co-solvent injectable formulation; conditions: co-solvent based injectable formulation, aqueous with cosolvent or surfactant or cyclodextrin
# [9] = daily i.p. for 7 days, NOD-SCID mice
smiles,measurement,setting,value
"C#Cc1ccc2c(c1)C(c1ccccc1F)=NCC(=O)N2C [BZD-1, 7-ethynyl-5-(2-fluorophenyl)-1-methyl-1,3-dihydro-2H-benzo[e][1,4]diazepin-2-one]",Effect of combined therapy on TMZ resistance,"[1]; BZD-1 + TMZ, unmethylated GBM cell lines",overcomes TMZ resistance
same,Synergy of BZD-1 and TMZ (Chou-Talay Combination Index Equation),"[1]; BZD-1 in combination with TMZ, GBM cells",act synergistically
same,Spheroid response to combination therapy,[2],significant disaggregation
same,Stable at room temperature,[3],up to 6 months
same,Proliferation of H1792 cells,"[4]; 48 hours, in vitro",inhibits proliferation
same,IC50,"[4]; Homo sapiens, NCI-H1792, 48 hours",4.5 to 6 µM
same,Effect on docetaxel cytotoxicity,"[5]; 2.5 μM BZD-1 + DTX, 48 hours, MTS",potentiates the cytotoxic effect of docetaxel
same,Combination Index (CI),"[5]; BZD-1 combined with DTX, H1792 cell growth in vitro",0.6
same,"Clonogenic growth, combination with docetaxel",H1792 cells,work synergistically
same,Most effective dose,H1792 xenograft tumor; [9],2.5 mg/kg
same,Tumor volume compared to vehicle,H1792 xenograft tumor; [9],reduced tumor volume
same,Sedation in the animal model,H1792 xenograft tumor; doses higher than 2.5 mg/kg,sedating
same,Time of penetration into the brain,[6]; brain,≤ 5 min
same,Accumulation in brain extracellular fluid,[6]; brain extracellular fluid,161.3 ng/mL
same,Breakdown products in human liver microsomes,[7],no breakdown products were found
same,Visible adverse effects,rats,no visible adverse effects
same,solubility,[8],10000 µg/mL
